From patent publication US20240254135A1, “POLYPHENOL COMPOUNDS” (Epirium Bio Inc., priority 2022, published 2024)

How the values were obtained:
[1] = biological target: T1, mitochondrial ATP synthase (Mus musculus, UniProt P56480+Q03265); experiment: ATP synthesis (oxygen consumption, Seahorse XF96) in fresh heart mitochondria; type: biochemical
T1 construct: from tissue; host or cells: mouse heart, isolated mitochondria (fresh or frozen)
From the text: To assess whether the fraction of synthetic and reverse hydrolytic activities of mitochondrial ATP synthase can be measured in the same preparation, a protocol was developed to monitor changes in oxygen consumption and proton release in response to changes in mitochondrial ATP synthase activity. The proton released and the concomitant changes in the pH can be monitored using the ECAR (extracellular acidification) channel in the Agilent Seahorse XF analyzer using isolated mitochondria, to ensure that the changes in pH cannot be attributed to glycolysis or other contributors to ECAR.
Mice were anesthetized with isoflurane followed by a cervical dislocation, and the heart was immediately removed and placed in ice cold relaxation buffer (5 mM sodium pyrophosphate, 100 mM KCl, 5 mM EGTA, 5 mM HEPES; pH 7.4). The heart was squeezed with tweezers to remove blood, minced with scissors, and then placed in a glass-glass Dounce homogenizer with 3 mL of HES homogenization buffer (250 mM sucrose, 5 mM HEPES, 1 mM EDTA; pH to 7.2, adjusted with KOH). The heart tissue was homogenized first with the loose pestle and followed by the tight pestle. The homogenized tissue was placed in a pre-chilled 15 ml conical tube and centrifuged at 900×g (4° C.) for 10 minutes (min). The supernatant was removed, placed in a new tube and centrifuged again at 900×g for 10 min. The supernatant was then transferred to 2 mL microcentrifuge tubes and centrifuged at 10,000×g (4° C.) for 10 min. The mitochondrial pellets were re-suspended in ice cold HES buffer and mitochondrial protein was measured with a BCA assay (Pierce). The concentrated mitochondrial pellet was stored on ice.
Heart mitochondria (0.75-1.5 μg) were loaded into a Seahorse XF96 microplate in 20 μL of MAS (70 mM Sucrose, 220 mM Mannitol, 5 mM KH2PO4, 5 mM MgCl2, 1 mM EGTA, 2 mM HEPES; pH 7.2) plus 1% free fatty acid BSA containing substrates. The loaded plate was centrifuged at 2,000×g for 5 min at 4° C. […]
Oxygen consumption was measured in isolated fresh intact mitochondria from mouse heart, as oxygen consumption is linked to maximal ATP synthesis and proton release when mitochondria are respiring either in the presence of substrates and ADP (ATP synthesizing mitochondria or state 3) or in the presence of substrates but not ADP (state 4). […]
OCR and ECAR were measured in a Seahorse XF96 analyzer under basal conditions as well as after injection of 2 μM oligomycin, two sequential additions of 1.5 μM FCCP, followed by 1 μM rotenone with 2 μM antimycin A. Respiratory parameters were calculated according to standard protocols, and all rates were corrected for non-mitochondrial respiration/background signal by subtracting the oxygen consumption rate insensitive to rotenone plus antimycin A.

[2] = biological target: T1, mitochondrial ATP synthase; experiment: Maximal ATP hydrolysis capacity in frozen heart mitochondria; type: biochemical; settings: frozen mitochondria (FIGS. 3 and 4)
Method: ATP hydrolysis capacity or state 4 acidification was measured using Seahorse XF96 as described in Divakaruni et al. (2018) Anal Biochem 552:60-65 and Acin-Perez et al. (2021) Life 11(9):949, in MAS (70 mM Sucrose, 220 mM Mannitol, 5 mM KH2PO4, 5 mM MgCl2, 1 mM EGTA, 2 mM HEPES; pH 7.2). Plates were loaded with 0.75-1.5 μg of mouse heart mitochondria, or 25 μg of cell lysate. Cell lysates were prepared by subjecting the samples to 4 cycles of free thaw (liquid nitrogen—37° C. water bath) before measuring protein concentration. When assessing compounds effect on respirometry, the compounds were added in MAS after sample centrifugation. Initial respiration of the samples was sustained by the addition of 5 mM succinate+2 μM rotenone in the MAS after centrifugation. Injections were performed at the following final concentration in the well: Antimycin A (2 μM), oligomycin (5 μM), FCCP (1 μM), ATP (20 mM). To assess maximal ATP concentration, ATP was injected consecutively.
An additional assay was developed to determine the maximal ATP hydrolysis capacity in frozen mitochondria. Maximal ATP hydrolytic capacity was assessed in frozen heart mitochondria where mitochondrial respiration is inhibited by Antimycin A and maximal ATP hydrolysis is driven by co-injection of FCCP and ATP, followed by inhibition in the presence of oligomycin.

In the case of `Oc1ccc2c(c1)OC(c1ccc(O)c(C(F)(F)F)c1)C(O)C2` (single isomer, unassigned) [Compound 77b, 2-(4-hydroxy-3-(trifluoromethyl)phenyl)chromane-3,7-diol], the “change in ATP synthesis” value ([1]; Complex I substrates, fresh mitochondria) is reported as “no change”, the “change in ATP synthesis” value ([1]; Complex II substrates, fresh mitochondria) is reported as “no change” and the “change in ATP synthesis” value ([1]; fresh heart mitochondria (FIG. 1, FIG. 2)) is reported as “no change”. It also gave a decrease in hydrolysis [2] of 25%.
